Laboratory results reported in patent publication US8383619B2, “Pharmaceutical compounds” (Astex Therapeutics Limited, priority 2008, dated 2013).
pIC50: −log10 of the molar value.

Legend:
Assay type in all cases: cell-based
BV-173 = assay: Anti-proliferative assay (Oncodesign); conditions: Homo sapiens; BV-173 (BLOOD); read-out: IC50 (Concentration of test compound)
Protocol: (§1) The anti-proliferative activities of the parent compounds of the pro-drugs of the invention may be determined by measuring the ability of the compounds to inhibition of cell growth in a number of cell lines such as the human colon cancer cell line HCT116. Inhibition of cell growth is measured using the Alamar Blue assay (Nociari, M. M, Shalev, A., Benias, P., Russo, C. Journal of Immunological Methods 1998, 213, 157-167). The method is based on the ability of viable cells to reduce resazurin to its fluorescent product resorufin. For each proliferation assay cells are plated onto 96 well plates and allowed to recover for 16 hours prior to the addition of inhibitor compounds for a further 72 hours. At the end of the incubation period 10% (v/v) Alamar Blue is added and incubated for a further 6 hours prior to determination of fluorescent product at […]. In the case of the non-proliferating cell assay cells are maintained at confluence for 96 hour prior to the addition of inhibitor compounds for a further 72 hours. The number of viable cells is determined by Alamar Blue assay as before. Cell lines may be obtained from the ECACC (European Collection of cell Cultures).
(§2) The parent compound of the pro-drugs of Examples 1 to 25 i.e. (2,4-dihydroxy-5-isopropyl-phenyl)-[5-(4-methyl-piperazin-1-ylmethyl)-1,3-dihydro-isoindol-2-yl]-methanone, in the form of its L-lactate salt, was tested in anti-proliferative assays against one hundred cell lines by Oncodesign (Dijon, France). The IC50 values against each cell line are set out in the table below and the figures in the table refer to nanomolar concentrations. The compounds were tested up to a concentration of 10,000 nanomolar.

Capan-2 = assay: Anti-proliferative assay (Oncodesign); conditions: Homo sapiens; Capan-2 (PANCREAS); read-out: IC50 (Concentration of test compound)
Protocol: as §1, §2

DLD-1 = assay: Anti-proliferative assay (Oncodesign); conditions: Homo sapiens; DLD-1 (COLON); read-out: IC50 (Concentration of test compound)
Protocol: as §1, §2

EHEB = assay: Anti-proliferative assay (Oncodesign); conditions: EHEB (BLOOD); read-out: IC50 (Concentration of test compound)
Protocol: as §1, §2

HCT 116 = assay: Anti-proliferative assay (Oncodesign); conditions: Homo sapiens; HCT 116 (COLON); read-out: IC50 (Concentration of test compound)
Protocol: as §1, §2

IGROV-1 = assay: Anti-proliferative assay (Oncodesign); conditions: Homo sapiens; IGROV-1 (OVARY); read-out: IC50 (Concentration of test compound)
Protocol: as §1, §2

KATO III = assay: Anti-proliferative assay (Oncodesign); conditions: Homo sapiens; KATO III (STOMACH); read-out: IC50 (Concentration of test compound)
Protocol: as §1, §2

KB = assay: Anti-proliferative assay (Oncodesign); conditions: Homo sapiens; KB (HEAD AND NECK); read-out: IC50 (Concentration of test compound)
Protocol: as §1, §2

LB61-NSCLC = assay: Anti-proliferative assay (Oncodesign); conditions: LB61-NSCLC (LUNG); read-out: IC50 (Concentration of test compound)
Protocol: as §1, §2

LB831-BLC = assay: Anti-proliferative assay (Oncodesign); conditions: LB831-BLC (URINARY BLADDER); read-out: IC50 (Concentration of test compound)
Protocol: as §1, §2

LB996-RCC = assay: Anti-proliferative assay (Oncodesign); conditions: LB996-RCC (KIDNEY); read-out: IC50 (Concentration of test compound)
Protocol: as §1, §2

LNCaP-FGC = assay: Anti-proliferative assay (Oncodesign); conditions: LNCaP-FGC (PROSTATE); read-out: IC50 (Concentration of test compound)
Protocol: as §1, §2

LoVo = assay: Anti-proliferative assay (Oncodesign); conditions: Homo sapiens; LoVo (COLON); read-out: IC50 (Concentration of test compound)
Protocol: as §1, §2

MC90 = assay: Anti-proliferative assay (Oncodesign); conditions: MC90 (BLOOD); read-out: IC50 (Concentration of test compound)
Protocol: as §1, §2

MCF-7/ras = assay: Anti-proliferative assay (Oncodesign); conditions: Homo sapiens, MCF7; MCF-7/ras (BREAST); read-out: IC50 (Concentration of test compound)
Protocol: as §1, §2

MCF-7 = assay: Anti-proliferative assay (Oncodesign); conditions: Homo sapiens, MCF7; MCF-7 (BREAST); read-out: IC50 (Concentration of test compound)
Protocol: as §1, §2

MDA-MB-435S = assay: Anti-proliferative assay (Oncodesign); conditions: Homo sapiens; MDA-MB-435S (BREAST); read-out: IC50 (Concentration of test compound)
Protocol: as §1, §2

Malme-3M = assay: Anti-proliferative assay (Oncodesign); conditions: Homo sapiens; Malme-3M (SKIN); read-out: IC50 (Concentration of test compound)
Protocol: as §1, §2

NCI-H1299 = assay: Anti-proliferative assay (Oncodesign); conditions: Homo sapiens; NCI-H1299 (LUNG); read-out: IC50 (Concentration of test compound)
Protocol: as §1, §2

NCI-H596 = assay: Anti-proliferative assay (Oncodesign); conditions: Homo sapiens; NCI-H596 (LUNG); read-out: IC50 (Concentration of test compound)
Protocol: as §1, §2

NCI-H82 = assay: Anti-proliferative assay (Oncodesign); conditions: Homo sapiens; NCI-H82 (LUNG); read-out: IC50 (Concentration of test compound)
Protocol: as §1, §2

PA-1 = assay: Anti-proliferative assay (Oncodesign); conditions: Homo sapiens; PA-1 (OVARY); read-out: IC50 (Concentration of test compound)
Protocol: as §1, §2

Raji = assay: Anti-proliferative assay (Oncodesign); conditions: Homo sapiens; Raji (BLOOD); read-out: IC50 (Concentration of test compound)
Protocol: as §1, §2

SK-MEL-2 = assay: Anti-proliferative assay (Oncodesign); conditions: Homo sapiens; SK-MEL-2 (SKIN); read-out: IC50 (Concentration of test compound)
Protocol: as §1, §2

SK-MEL-5 = assay: Anti-proliferative assay (Oncodesign); conditions: Homo sapiens; SK-MEL-5 (SKIN); read-out: IC50 (Concentration of test compound)
Protocol: as §1, §2

one hundred cell lines = assay: Anti-proliferative assays against one hundred cell lines; conditions: wide range of different cell lines
Protocol: as §1, with “Cultures). […]” for “Cultures).”

pIC50 (DLD-1): 7.25
pIC50 (HCT 116): 7.42
pIC50 (KB): 7.32
pIC50 (LNCaP-FGC): 7.11
pIC50 (LoVo): 7.29
pIC50 (MCF-7/ras): 6.78
pIC50 (MCF-7): < 5.00
pIC50 (MDA-MB-435S): 7.59
pIC50 (NCI-H1299): 6.23
pIC50 (NCI-H596): 7.08
pIC50 (NCI-H82): < 5.00
pIC50 (Raji): 6.06
pIC50 (SK-MEL-2): 6.86
pIC50 (SK-MEL-5): 6.73
SMILES: CC(C)c1cc(C(=O)N2Cc3ccc(CN4CCN(C)CC4)cc3C2)c(O)cc1O [(2,4-dihydroxy-5-isopropyl-phenyl)-[5-(4-methyl-piperazin-1-ylmethyl)-1,3-dihydro-isoindol-2-yl]-methanone]
pIC50 (BV-173): 7.14
pIC50 (Capan-2): 6.84
pIC50 (EHEB): < 5.00
pIC50 (IGROV-1): 6.96
pIC50 (KATO III): 6.79
pIC50 (LB61-NSCLC): < 5.00
pIC50 (LB831-BLC): 6.83
pIC50 (LB996-RCC): 6.80
pIC50 (MC90): 7.03
pIC50 (Malme-3M): 6.80
pIC50 (PA-1): < 5.00
anti-proliferative activity (one hundred cell lines): potent anti-proliferative activity
